Results taken from patent EP1076558B1, “2-PHENYL-1-[-(2-AMINOETHOXY)-BENZYL -INDOLE IN COMBINATION WITH ESTROGENS” (Wyeth, priority 1998, dated 1999).
Structures can show the parent of a compound that is named as a salt.

Molecular target: T1, estrogen receptor (Homo sapiens, UniProt P03372)
T1 construct: expressed in transfected cells; host or cells: CHO cells (ribosome-free cytosol)
T1 sequence (P03372 1-595): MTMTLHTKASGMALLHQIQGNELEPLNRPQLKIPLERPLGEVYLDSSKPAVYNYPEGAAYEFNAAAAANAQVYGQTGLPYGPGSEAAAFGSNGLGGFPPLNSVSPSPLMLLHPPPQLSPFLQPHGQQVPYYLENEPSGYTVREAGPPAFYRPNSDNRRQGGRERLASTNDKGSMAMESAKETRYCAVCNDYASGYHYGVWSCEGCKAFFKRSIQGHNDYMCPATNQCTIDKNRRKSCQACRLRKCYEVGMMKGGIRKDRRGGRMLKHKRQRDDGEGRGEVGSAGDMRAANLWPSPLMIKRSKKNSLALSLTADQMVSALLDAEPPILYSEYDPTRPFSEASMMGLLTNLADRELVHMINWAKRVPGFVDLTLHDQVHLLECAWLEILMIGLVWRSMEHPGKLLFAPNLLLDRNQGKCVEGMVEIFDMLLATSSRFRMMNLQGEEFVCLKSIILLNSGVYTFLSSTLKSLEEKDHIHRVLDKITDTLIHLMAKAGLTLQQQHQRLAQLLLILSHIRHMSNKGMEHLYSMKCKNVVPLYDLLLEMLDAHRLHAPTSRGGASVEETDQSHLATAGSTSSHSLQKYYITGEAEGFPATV
Test: In vitro estrogen receptor binding assay
Conditions: not given
Experimental: CHO cells overexpressing the estrogen receptor were grown in 150 mm^2 dishes in DMEM + 10% dextran coated charcoal, stripped fetal bovine serum. The plates were washed twice with PBS and once with 10mM Tris-HCl, pH 7.4, 1mM EDTA. Cells were harvested by scraping the surface and then the cell suspension was placed on ice. Cells were disrupted with a hand-held motorized tissue grinder using two, 10-second bursts. […] The cytosol was then frozen and stored at -80°C. Protein concentration of the cytosol was estimated using the BCA assay with reference standard protein.
100uG/100uL of the receptor preparation was aliquoted per well. […] The plate was incubated at room temperature for 2.5 h. […] 200 uL of the supernatant solution was then removed for scintillation counting. Samples were counted to 2% or 10 minutes, whichever occurs first. […] Also, wells containing radioactivity but no cytosol were processed with charcoal to estimate unremovable DPM of [^3H]
Counts per minute (CPM) of radioactivity were automatically converted to disintegrated per minute (DPM) by the Beckman LS 7500 Scintillation Counter using a set of quenched standards to generate a H No. for each sample.
For the generation of IC50 curves, % binding is plotted vs compound. […] For a description of these methods, see Hulme, E.C., ed. […] Receptor-Ligand Interactions: A Practical Approach. IRL Press, New York.(see especially chapter 8).

Structure (SMILES) | IC50
Cc1c(-c2ccc(O)cc2)n(Cc2ccc(OCCN(C(C)C)C(C)C)cc2)c2ccc(O)cc12 [Example No. 104, 1-[4-(2-Diisopropylamino-ethoxy)-benzyl]-2-(4-hydroxy-phenyl)-3-methyl-1H-indol-5-ol] | 100 nM

Same assay, conditions: competition with [3H]17β-estradiol; cytosol of CHO cells overexpressing the estrogen receptor; read-out: Receptor Binding IC50's

IC50 | Structure (SMILES)
28 nM | CCCCN(C)CCOc1ccc(Cn2c(-c3ccc(O)cc3)c(C)c3cc(O)ccc32)cc1 [Example No. 105]
100 nM | Cc1c(-c2ccc(O)cc2)n(Cc2ccc(OCC[N+](C)(C)C)cc2)c2ccc(O)cc12 [Example No. 106, 2-(4-Hydroxy-phenyl)-3-methyl-1-[4-(2-dimethyl-1-yl-ethoxy)-benzyl]-1H-indol-5-ol methiodide]

Same assay, conditions: read-out: Receptor Binding IC50's

Structure (SMILES) | IC50
CCOc1ccc(-c2c(C)c3cc(O)ccc3n2Cc2ccc(OCCN3CCCCC3)cc2)cc1 [Example No. 92, 2-(4-Ethoxv-phenyl)-3-methyl-1-[4-(2-piperidin-1-yl-ethoxy)-benzyl]-1H-indol-5-ol] | 62 nM
Cc1c(-c2ccc(O)cc2)n(Cc2ccc(OCCN3CCC(C)CC3)cc2)c2ccc(O)cc12 [Example No. 110, 2-(4-Hydroxy-phenyl)-3-methyl-1-{4-[2-(4-methyl-piperidin-1-yl)-ethoxy]-benzyl}-1H-indol-5-ol] | 37 nM
Cc1c(-c2ccc(F)cc2)n(Cc2ccc(OCCN3CCCCC3)cc2)c2ccc(O)cc12 [Example No. 116, 2-(4-Fluoro-phenyl)-3-methyl-1-[4-(2-piperidine-1-yl-ethoxy)-benzyl]-1H-indol-5-ol] | 40 nM
Cc1c(-c2ccc(O)cc2)n(Cc2ccc(OCCN3CCC(O)CC3)cc2)c2ccc(O)cc12 [Example No. 113, 2-(4-Hydroxy-phenyl)-1-{4-[2-(4-hydroxy-piperidin-1-yl)-ethoxy]-benzyl}-3-methyl-1H-indol-5-ol] | 47 nM
Cc1c(-c2ccc(F)cc2)n(Cc2ccc(OCCN3CCCCCC3)cc2)c2ccc(O)cc12 [Example No. 117, 1-[4-(2-Azepan-1-yl-ethoxy)-benzyl]-2-(4-fluoro-phenyl)-3-methyl-1H-indol-5-ol] | 100 nM
Cc1c(-c2ccccc2)n(Cc2ccc(OCCN3CCCCC3)cc2)c2ccc(O)cc12 [Example No. 87, 3-Methyl-2-phenyl-1-[4-(2-piperidine-1-yl-ethoxy)-benzyl]-1H-indol-5-ol] | 30 nM
Cc1c(-c2ccccc2)n(Cc2ccc(OCCN3CCCCC3)cc2)c2ccccc12 [Example No. 85, 4-{3-Methyl-1-[4-(2-piperidin-1-yl-ethoxy)-benzyl]-1H-indole}] | 450 nM
CCCCN(CCCC)CCOc1ccc(Cn2c(-c3ccc(O)cc3)c(C)c3cc(O)ccc32)cc1 [Example No. 103, 1-[4-(2-Dibutylamino-ethoxy)-benzyl]-2-(4-hydroxy-phenyl)-3-methyl-1H-indol-5-ol] | 200 nM
Cc1c(-c2ccc(O)cc2)n(Cc2ccc(OCCN3CCCCC3)cc2)c2ccccc12 [Example No. 86, 4-{3-Methyl-1-[4-(2-piperidin-1-yl-ethoxy)-benzyl]-1H-indol-2-yl}-phenol hydrochloride] | 120 nM
COc1ccc(-c2c(C)c3cc(OC)ccc3n2Cc2ccc(OCCN3CCCCC3)cc2)cc1 [Example No. 90, 5-Methoxy-2-(4-methoxy-phenyl)-3-methyl-1-{4-(2-piperidin-1-yl-ethoxy)-benzyl]-1H-indole] | 600 nM
Cc1c(-c2ccc(O)cc2)n(Cc2ccc(OCCN3CCCC(C)(C)C3)cc2)c2ccc(O)cc12 [Example No. 111, 1-{4-[2-(3,3-Dimethyl-piperidin-1-yl)-ethoxy]-benzyl}-2-(4-hydroxy-phenyl)-3-methyl-1H-indol-5-ol] | 150 nM
Cc1c(-c2ccc3c(c2)OCO3)n(Cc2ccc(OCCN3CCCCC3)cc2)c2ccc(O)cc12 [Example No. 119, 2-Benzo[1,3]dioxol-5-yl-3-methyl-1-[4-(2-piperidin-1-yl-ethoxy)-benzyl]-1H-indol-5-ol] | 70 nM
COc1ccc(-c2c(C)c3cc(O)ccc3n2Cc2ccc(OCCN3CCCCC3)cc2)cc1 [Example No. 89, 2-(4-methoxy-phenyl)-3-methyl-1-{4-[2-(piperidin-1-yl)-ethoxy]-benzyl}-1H-indol-5-ol] | 300 nM
Cc1c(-c2ccc(O)cc2)n(Cc2ccc(OCCN3CCCCC3)cc2)c2ccc(F)cc12 [Example No. 94, 4-{5-Fluoro-3-methvl-1-[4-(2-piperidin-1-yl-ethoxy)-benzyl]-1H-indol-2-yl}-phenol] | 200 nM
Cc1c(-c2ccc(O)cc2)n(Cc2ccc(OCCN3CC4(C)CC3CC(C)(C)C4)cc2)c2ccc(O)cc12 (centres unmarked) [Example No. 115, 2-(4-Hydroxy-phenyl)-3-methyl-1-{4-[2-(1,3,3-trimethyl-6-aza-bicyclo[3.2.1]oct-6-yl)-ethoxy]-benzyl}-1H-indol-5-ol] | 150 nM
CCCN(CCC)CCOc1ccc(Cn2c(-c3ccc(O)cc3)c(C)c3cc(O)ccc32)cc1 [Example No. 102, 1-[4-(2-Dipropylamino-ethoxy)-benzyl]-2-(4-hydroxy-phenyl)-3-methyl-1H-indol-5-ol] | 80 nM
COc1ccc2c(c1)c(C)c(-c1ccc(O)cc1)n2Cc1ccc(OCCN2CCCCC2)cc1 [Example No. 88, 4-{5-Methoxy-3-methyl-1-{4-[2-(piperidin-1-yl)-ethoxy]-benzyl}-1H-indol-2-yl}-phenol] | 350 nM
Cc1c(-c2ccc(O)cc2)n(Cc2ccc(OCCN3C[C@@H]4CC[C@H]3C4)cc2)c2ccc(O)cc12 [Example No. 114, (1S,4R)-1-{4-[2-(2-Aza-bicyclo [2.2.1]hept-2-yl)-ethoxy]-benzyl}-2-(4-hydroxy-phenyl)-3-methyl-1H-indol-5-ol] | 1 nM
CCOc1ccc(-c2c(C)c3cc(O)ccc3n2Cc2ccc(OCCN3CCCCCC3)cc2)cc1 [Example No. 93, 1-[4-(2-Azepan-1-yl-ethoxy)-benzyl]-2-(4-ethoxy-phenyl)-3-methyl-1H-indol-5-ol] | 90 nM
Cc1c(-c2ccc(O)cc2)n(Cc2ccc(OCCN3CCCCC3C)cc2)c2ccc(O)cc12 (centres unmarked) [Example No. 108, 2-(4-Hydroxy-phenyl)-3-methyl-1-{4-[2-(2-methyl-piperidin-1-yl)-ethoxy]-benzyl}-1H-indol-5-ol] | 20 nM

Test system: Ishikawa cells
Test: Ishikawa Cell Alkaline Phosphatase Assay
Type: cell-based, human
Conditions: Homo sapiens, Ishikawa; estrogenic activity by the alkaline phosphatase method; reference standards; read-out: ED50 values (95% C.I.)
Experimental: Cells were treated for 48 h prior to assay. […] Sample population for at each dose was n=8. […] Plates are placed at -80°C for a minimum of 15 minutes. Plates are thawed at 37°C followed by the addition of 150μL of 0.1 M Tris-HCl, pH 9.8, containing 4 mM para-nitrophenylphosphate (pNPP) to each well (final concentration. 3 mM pNPP). Absorbance and slope calculations were made using the […] Application program (Bio-Tek Instruments, Inc., Winooski, VT). […] Various compounds were assayed for estrogenic activity by the alkaline phosphatase method and corresponding ED50 values (95% C.I.) were calculated. The four listed in the following were used as as reference standards: A description of these methods is described by Holinka, […]., Kuramoto, H. and Gurpide, E. (1986) Effects of steroid hormones and antisteroids on alkaline phosphatase activity in human endometrial cancer cells (Ishikawa Line). Cancer Research, 46:2771-2774, and by […]. and […] simple and sensitive microtiter plate estrogen bioassay based on stimulation alkaline phosphatase in Ishikawa cells; […] Endocrinology, 6:2757-2762.

EC50 | Structure (SMILES)
0.36 nM | C[C@]12CC[C@@H]3c4ccc(O)cc4CC[C@H]3[C@@H]1CCC2=O [estrone]
0.13 nM | C[C@]12CC[C@@H]3c4ccc(O)cc4CC[C@H]3[C@@H]1C[C@@H](O)[C@@H]2O [estriol]

Same assay, conditions: estrogenic activity by the alkaline phosphatase method; reference standards; read-out: ED50 values (95% C.I.)

EC50 | Structure (SMILES)
1.42 nM | C[C@]12CC[C@@H]3c4ccc(O)cc4CC[C@H]3[C@@H]1CC[C@H]2O [17α-estradiol]
